These are literature values, as cited in patent US20140066461A1, “METHODS FOR DIAGNOSING AND TREATING SCHIZOPHRENIA” (priority 2012, published 2014).

Data set [1] deals with protein tyrosine phosphatases.
In data set [2] the test system is rats.
For data set [3], the system named is rats. This is another data set of the same source.
For data set [4], the system named is patients with previously treated mantle cell lymphoma.
Another data set has as its target BTK (Homo sapiens, UniProt Q06187).

Sequence of BTK (Q06187 whole entry): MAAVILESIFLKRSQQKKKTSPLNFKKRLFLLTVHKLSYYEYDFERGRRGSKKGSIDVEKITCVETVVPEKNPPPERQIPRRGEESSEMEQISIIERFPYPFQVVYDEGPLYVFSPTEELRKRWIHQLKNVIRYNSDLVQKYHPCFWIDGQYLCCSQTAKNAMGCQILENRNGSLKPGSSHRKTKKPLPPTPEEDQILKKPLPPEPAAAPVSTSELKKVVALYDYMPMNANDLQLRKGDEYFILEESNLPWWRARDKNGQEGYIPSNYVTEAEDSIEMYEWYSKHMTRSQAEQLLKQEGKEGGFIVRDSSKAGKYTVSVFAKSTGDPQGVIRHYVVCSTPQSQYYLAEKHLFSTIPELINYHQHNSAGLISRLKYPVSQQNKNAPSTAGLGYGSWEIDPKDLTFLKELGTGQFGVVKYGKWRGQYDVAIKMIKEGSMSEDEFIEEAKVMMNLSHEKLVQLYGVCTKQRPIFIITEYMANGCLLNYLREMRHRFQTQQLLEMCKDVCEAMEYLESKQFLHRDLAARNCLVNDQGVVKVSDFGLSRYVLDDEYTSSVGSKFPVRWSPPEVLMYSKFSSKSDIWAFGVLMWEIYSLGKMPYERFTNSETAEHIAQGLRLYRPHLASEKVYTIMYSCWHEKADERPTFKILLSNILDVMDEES

`Cc1ccc(S(=O)(=O)/C=C/C#N)cc1` [BAY-11-7082]: in data set [1], the “inhibition of protein tyrosine phosphatases” value was “act as inhibitors of protein tyrosine phosphatases”.

In the case of `O=C(CCCN1CCC(O)(c2ccc(Cl)cc2)CC1)c1ccc(F)cc1` [haloperidol], the “picrotoxin effect on prepulse inhibition of startle” value in the data set with rats [2] was “reduces this effect”. Besides, the “effects of amphetamine on attention” value in the data set on rats [3] is listed as “reverse the effects of amphetamine on attention in rats”.

Regarding `C=CC(=O)N1CCC[C@@H](n2nc(-c3ccc(Oc4ccccc4)cc3)c3c(N)ncnc32)C1` [PCI-32765], the complete responses entry in data set [4] (560 mg/day) is “About 15%”. In addition, in data set [4] (560 mg/day, 51 patients evaluable for efficacy, early in the trial), the “objective responses (partial plus complete)” value is 69%. For the same molecule, in data set [4] (MCL study, accompanied by large increases in lymphocyte counts in circulation), the “effect on lymph nodes” value is recorded as “rapid shrinkage of lymph nodes swollen with malignant cells”. For the same molecule, the “patients exhibiting complete or partial responses” value in data set [4] (preliminary data, ongoing phase II trial) was “About two-thirds”. In addition, the toxicity result in data set [4] (small trials, mantle cell lymphoma) was “low toxicity”.

With `Nc1ncnc2c1c(-c1ccc(Oc3ccccc3)cc1)nn2C1CCCC1` [PCI-29732], the “mode of BTK inhibition” value on BTK is recorded as “reversible BTK inhibitor”.
